Experimental data published in patent publication US20060233709A1, “Method for identifying novel treatments of inflammatory disease in the gut” (priority 2003, published 2006).
“Also recorded” adds a separate entry of the source.

Tests used:
zebrafish larvae = assay: Suitability of fluorescent stains for in vivo gut visualisation
Description: In vivo labelling was achieved by rearing fish in a suspension of 0.05% quercetin (Sigma) for a minimum of 2 hours. To observe gut architecture and motility, larvae were anaesthetised larvae by immersion in 0.2 mg/ml 3-amino benzoic acid ethylester (MS222) (Sigma). Gut architecture and motility can be observed using the FITC and GFP filter sets.
Visualisation is achieved by the administration of a fluorescent dye to the embryo medium. The dye is swallowed by the fish but not readily absorbed and therefore fills the entire gut.
When viewed under a fluorescent microscope, the crypts and villi of the gut were apparent as the unstained tissue of the gut wall was highlighted in contrast to the fluorescent medium that filled the gut lumen. In addition, as staining can be performed in vivo, waves of peristalsis were observed (as indicated in the different positions of the gut wall).

zebrafish = assay: DMSO tolerance of zebrafish; details: in vivo
From the text: Moreover, the inventors have discovered that zebrafish are also DMSO (dimethyl sulphoxide) tolerant. This is important as DMSO is used as a solvent to dissolve many drugs. The inventors have established that zebrafish can tolerate 1% DMSO. Thus, a candidate drug or other test substance may be dissolved in DMSO and administered to zebrafish by adding to the fish water to give a final concentration of DMSO of at least up to 1%. This is employed in various preferred aspects and embodiments of the present invention.

[1] = tested on: zebrafish larvae with PSA-induced IBD; assay: In vivo examination of gut architecture and motility (quercetin labelling) in PSA-induced IBD; details: for Rescue of the IBD phenotype: IBD induced with PSA 3 to 5 d.p.f., drug added with PSA from 5 d.p.f.
[2] = tested on: zebrafish larvae with PSA-induced IBD; assay: Histology (haematoxylin and eosin sections) of gut in PSA-induced IBD; type: in vivo
TNFα = details: co-administration with PSA from 3 to 8 d.p.f.

O=c1c(O)c(-c2ccc(O)c(O)c2)oc2cc(O)cc(O)c12 [quercetin]
Toxicity as in vivo gut stain (zebrafish larvae): low toxicity

C[S+](C)[O-] [DMSO, dimethyl sulphoxide]
Tolerated DMSO concentration in fish water (zebrafish): 1%

Nc1ccc(O)c(C(=O)O)c1 [5-ASA, 5-amino salicylic acid]
Rescue of the IBD phenotype [1]: Rescue of the IBD phenotype was seen
Rescue of the IBD phenotype ([1]; listed as salicylic acid): rescue of the disease phenotype
Effect when administered after the induction of disease changes ([2]; drug given after PSA induction): effective when administered after the induction of disease changes
Prevention/rescue of disease changes when co-administered with PSA ([2]; effective dose co-administered with PSA, histological analysis): able to prevent/rescue disease changes

O=C1CCC(N2C(=O)c3ccccc3C2=O)C(=O)N1 (stereo not drawn) [thalidomide]
Rescue of the in vivo disease phenotype ([1]; co-administration with PSA from 3 to 8 d.p.f., observed at 8 d.p.f.): failed to rescue the in vivo disease phenotype; also recorded: neither rescues the disease changes
TNFα expression (TNFα): down-regulation of TNFα expression
Rescue / improvement in gut histology ([2]; co-administration with PSA from 3 to 8 d.p.f.): failed to show improvement; also recorded: neither rescues the disease changes
